Experimental data reported in patent US20260077055A1, “COMPOSITIONS OF POLYPLEXES AND SAPONINS” (SAPREME TECHNOLOGIES B.V., priority 2022, published 2026).

System: A2058 cancer cells
Assay: pEGFP-N3 polyplex transfection of A2058 cells, light microscopy
Format: cell-based
Conditions: 72 h; SO1861-EMCH or SO1861 = 40 nM supplemented to PAMAM G5-(PEG N3)3.5 polyplexes
Experimental: Spectrophotometry: Concentrations were determined using either a Thermo Nanodrop 2000 spectrometer or Perkin Elmer Lambda 365 Spectrophotometer. DLS measurements: DLS measurements were performed on a Malvern Nano ZS (Malvern Instruments, U.K.), operating at 633 nm with a 173° scattering angle, at 25 or 37° C. DLS mean diameters were obtained from the intensity particle size distribution provided by Malvern Zetasizer Software. DLS histograms were obtained from the intensity particle size distributions. Zeta-potential: The zeta-potential values of the polyplexes were obtained by laser doppler anemometry (LDA), measuring the mean electrophoretic mobility (Malvern Zetasizer Nano ZS, Malvern Instruments, U.K.). Measurements were performed in 10 mM HEPES pH 7.1, 150 mM NaCl. TEM measurements: TEM measurements were performed on a JEOL JEM-1011 operated at 100 kV electron microscope, equipped with a camera S5 MegaView G2. […] Infrared Spectroscopy: FT-IR spectra were recorded on a Bruker Vertex 70v, equipped with a RockSolid interferometer, after preparing the samples (1-2 mg) as KBr pellets. […] NMR Spectroscopy: 1H NMR spectra were recorded on a 11.7 T Bruker DRX-500 spectrometer. […] Experiments were recorded acquiring 64-512 scans, with a pre-scan delay (d1) of 12 s, and an acquisition time (aq) of 4 s at 300 K. 13C NMR spectrum was recorder on a 9.39 T Varian Innova 400 spectrometer. […]

## CC(=O)OC1C(C)OC(OC2C(C)OC(OC(=O)[C@]34CCC(C)(C)CC3C3=CCC5[C@@]6(C)CC[C@H](OC7OC(C(=O)O)C(O)C(OC8OCC(O)C(O)C8O)C7OC7OC(CO)C(O)C(O)C7O)[C@@](C)(/C=N/NC(=O)CCCCCN7C(=O)C=CC7=O)C6CC[C@@]5(C)[C@]3(C)C[C@H]4O)C(OC3OC(C)C(OC4OCC(O)C(OC5OC(CO)C(O)C(O)C5O)C4O)C(O)C3O)C2O)C(O)C1OC1OCC(O)C(O)C1O (stereo partly shown) [SO1861-EMCH]
  pEGFP-N3 transfection (eGFP expression): marginal transfection
